{"source": "patent US8436178B2", "about": "“Imidazoquinolines with immuno-modulating properties” (AstraZeneca AB, priority 2007, dated 2013)", "target": "T1, human TLR7 (Homo sapiens, UniProt Q9NYK1)", "T1 construct": "expressed in transfected cells; host or cells: HEK293 cell line stably expressing the pNiFty2-SEAP reporter plasmid; TLR7 in pUNO vector, blasticidin selection", "T1 sequence (Q9NYK1 27-1049)": "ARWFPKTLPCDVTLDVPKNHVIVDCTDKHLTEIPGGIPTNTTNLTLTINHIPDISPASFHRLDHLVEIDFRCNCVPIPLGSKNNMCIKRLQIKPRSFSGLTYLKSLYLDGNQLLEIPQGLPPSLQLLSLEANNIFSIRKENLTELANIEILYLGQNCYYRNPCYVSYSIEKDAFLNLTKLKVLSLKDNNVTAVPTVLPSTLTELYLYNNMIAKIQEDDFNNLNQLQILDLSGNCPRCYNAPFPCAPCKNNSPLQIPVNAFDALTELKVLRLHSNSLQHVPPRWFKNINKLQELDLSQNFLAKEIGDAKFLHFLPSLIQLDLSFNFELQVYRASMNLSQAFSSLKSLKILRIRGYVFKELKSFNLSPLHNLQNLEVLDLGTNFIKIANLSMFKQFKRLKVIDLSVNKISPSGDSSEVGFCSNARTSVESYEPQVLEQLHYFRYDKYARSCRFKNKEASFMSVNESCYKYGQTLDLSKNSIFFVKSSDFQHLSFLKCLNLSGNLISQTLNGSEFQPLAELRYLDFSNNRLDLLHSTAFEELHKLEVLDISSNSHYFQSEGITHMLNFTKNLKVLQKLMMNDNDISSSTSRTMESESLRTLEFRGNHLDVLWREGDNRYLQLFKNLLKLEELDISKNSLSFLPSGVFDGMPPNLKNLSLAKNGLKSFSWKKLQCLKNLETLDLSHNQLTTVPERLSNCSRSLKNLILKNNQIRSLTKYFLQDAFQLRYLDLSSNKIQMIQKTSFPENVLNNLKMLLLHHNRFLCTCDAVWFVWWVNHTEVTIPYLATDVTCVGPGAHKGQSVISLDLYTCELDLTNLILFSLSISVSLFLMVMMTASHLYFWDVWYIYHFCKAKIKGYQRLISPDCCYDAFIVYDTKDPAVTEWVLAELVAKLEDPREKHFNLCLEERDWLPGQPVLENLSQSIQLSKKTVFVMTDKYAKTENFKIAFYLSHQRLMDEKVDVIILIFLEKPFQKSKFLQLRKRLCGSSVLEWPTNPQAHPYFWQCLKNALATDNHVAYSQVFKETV", "assay": "Human TLR7 assay (SEAP reporter in HEK293 cells)", "type": "cell-based", "conditions": "SEAP induction in HEK293 cells expressing human TLR7, overnight incubation at 37° C., 0.1% DMSO", "note": "pEC50: −log10 of the molar value. Where a name gives a salt, the structure may show the parent alone."}
{"molecule": "CCCCc1nc2c(N)nc3ccccc3c2n1CCCN(Cc1ccc(CC(=O)OC)cc1)C(=O)CS(C)(=O)=O", "note": "[Example 15, Methyl 2-(4-((N-(3-(4-amino-2-butyl-1H-imidazo[4,5-c]quinolin-1-yl)propyl)-2-(methylsulfonyl)acetamido)methyl)phenyl)acetate]", "values": [{"measurement": "pEC50", "value": 6.40}]}
{"molecule": "CCCCc1nc2c(N)nc3ccccc3c2n1CCCN(Cc1ccc(CC(=O)OC)cc1)C(C)=O", "note": "[Example 16, Methyl 2-(4-((N-(3-(4-amino-2-butyl-1H-imidazo[4,5-c]quinolin-1-yl)propyl)acetamido)methyl)phenyl)acetate]", "values": [{"measurement": "pEC50", "value": 6.90}]}
{"molecule": "CCCCc1nc2c(N)nc3ccccc3c2n1CCCN(Cc1ccc(CC(=O)OC)cc1)C(=O)CN1CCOCC1", "note": "[Example 17, Methyl 2-(4-((N-(3-(4-amino-2-butyl-1H-imidazo[4,5-c]quinolin-1-yl)propyl)-2-morpholinoacetamido)methyl)phenyl)acetate]", "values": [{"measurement": "pEC50", "value": 6.80}]}
{"molecule": "CCCCc1nc2c(N)nc3ccccc3c2n1CCCN(Cc1ccc(CC(=O)OC)cc1)C(=O)CN(C)CCOC", "note": "[Example 18]", "values": [{"measurement": "pEC50", "value": 7.20}]}
{"molecule": "CCCCc1nc2c(N)nc3ccccc3c2n1CCCN(Cc1ccc(CC(=O)OC)cc1)C(=O)CN1CCN(C(C)=O)CC1", "note": "[Example 19, Methyl 2-(4-((2-(4-acetylpiperazin-1-yl)-N-(3-(4-amino-2-butyl-1H-imidazo[4,5-c]quinolin-1-yl)propyl)acetamido)methyl)phenyl)acetate]", "values": [{"measurement": "pEC50", "value": 6.60}]}
{"molecule": "CCCCc1nc2c(N)nc3ccccc3c2n1CCCN(Cc1ccc(CC(=O)OC)cc1)C(=O)CN1CC[C@@H](O)C1", "note": "[Example 20, (R)-Methyl 2-(4-((N-(3-(4-amino-2-butyl-1H-imidazo[4,5-c]quinolin-1-yl)propyl)-2-(3-hydroxypyrrolidin-1-yl)acetamido)methyl)phenyl)acetate]", "values": [{"measurement": "pEC50", "value": 6.60}]}
{"molecule": "CCCCc1nc2c(N)nc3ccccc3c2n1CCCN(Cc1ccc(CC(=O)OC)cc1)C(=O)CN1CCN(c2ncccn2)CC1", "note": "[Example 21, Methyl 2-(4-((N-(3-(4-amino-2-butyl-1H-imidazo[4,5-c]quinolin-1-yl)propyl)-2-(4-(pyrimidin-2-yl)piperazin-1-yl)acetamido)methyl)phenyl)acetate]", "values": [{"measurement": "pEC50", "value": 6.20}]}
{"molecule": "CCCCc1nc2c(N)nc3ccccc3c2n1CCCN(Cc1ccc(CC(=O)OC)cc1)C(=O)CN1CCN(C(=O)OCC)CC1", "note": "[Example 22, Ethyl 4-(2-((3-(4-amino-2-butyl-1H-imidazo[4,5-c]quinolin-1-yl)propyl)(4-(2-methoxy-2-oxoethyl)benzyl)amino)-2-oxoethyl)piperazine-1-carboxylate]", "values": [{"measurement": "pEC50", "value": 6.20}]}
{"molecule": "CCCCc1nc2c(N)nc3ccccc3c2n1CCCN(Cc1ccc(CC(=O)OC)cc1)C(=O)CN1CCN(S(=O)(=O)CC)CC1", "note": "[Example 23, Methyl 2-(4-((N-(3-(4-amino-2-butyl-1H-imidazo[4,5-c]quinolin-1-yl)propyl)-2-(4-(ethylsulfonyl)piperazin-1-yl)acetamido)methyl)phenyl)acetate]", "values": [{"measurement": "pEC50", "value": 6.60}]}
{"molecule": "CCCCc1nc2c(N)nc3ccccc3c2n1CCCN(Cc1ccc(CC(=O)OC)cc1)C(=O)CN1CCCCC1", "note": "[Example 24, Methyl 2-(4-((N-(3-(4-amino-2-butyl-1H-imidazo[4,5-c]quinolin-1-yl)propyl)-2-(piperidin-1-yl)acetamido)methyl)phenyl)acetate]", "values": [{"measurement": "pEC50", "value": 7.10}]}
{"molecule": "CCCCc1nc2c(N)nc3ccccc3c2n1CCCN(Cc1ccc(CC(=O)OC)cc1)C(=O)CN1CCC(NC(=O)OC(C)(C)C)CC1", "note": "[Example 25, Methyl 2-(4-((N-(3-(4-amino-2-butyl-1H-imidazo[4,5-c]quinolin-1-yl)propyl)-2-(4-(tert-butoxycarbonylamino)piperidin-1-yl)acetamido)methyl)phenyl)acetate]", "values": [{"measurement": "pEC50", "value": 6.70}]}
{"molecule": "CCCCc1nc2c(N)nc3ccccc3c2n1CCCN(Cc1ccc(CC(=O)OC)cc1)C(=O)CN1CCC(N(C)C(=O)OC(C)(C)C)CC1", "note": "[Example 26, Methyl 2-(4-((N-(3-(4-amino-2-butyl-1H-imidazo[4,5-c]quinolin-1-yl)propyl)-2-(4-(tert-butoxycarbonyl(methyl)amino)piperidin-1-yl)acetamido)methyl)phenyl)acetate]", "values": [{"measurement": "pEC50", "value": 6.50}]}
{"molecule": "CCCCc1nc2c(N)nc3ccccc3c2n1CCCN(Cc1ccc(CC(=O)OC)cc1)C(=O)CN1CCC(CC(=O)OCC)CC1", "note": "[Example 27, Ethyl 2-(1-(2-((3-(4-amino-2-butyl-1H-imidazo[4,5-c]quinolin-1-yl)propyl)(4-(2-methoxy-2-oxoethyl)benzyl)amino)-2-oxoethyl)piperidin-4-yl)acetate]", "values": [{"measurement": "pEC50", "value": 7.40}]}
{"molecule": "CCCCc1nc2c(N)nc3ccccc3c2n1CCCN(Cc1ccc(CC(=O)OC)cc1)C(=O)CN1CCC(C(=O)OC)CC1", "note": "[Example 28, Methyl 1-(2-((3-(4-amino-2-butyl-1H-imidazo[4,5-c]quinolin-1-yl)propyl)(4-(2-methoxy-2-oxoethyl)benzyl)amino)-2-oxoethyl)piperidine-4-carboxylate]", "values": [{"measurement": "pEC50", "value": 6.70}]}
{"molecule": "COCCc1nc2c(N)nc3ccccc3c2n1CCCN(Cc1ccc(CC(=O)OC)cc1)C(=O)CN1CCCCC1", "note": "[Example 29, Methyl 2-(4-((N-(3-(4-amino-2-(2-methoxyethyl)-1H-imidazo[4,5-c]quinolin-1-yl)propyl)-2-(piperidin-1-yl)acetamido)methyl)phenyl)acetate]", "values": [{"measurement": "pEC50", "value": 7.00}]}
{"molecule": "COCCc1nc2c(N)nc3ccccc3c2n1CCCN(Cc1ccc(CC(=O)OC)cc1)C(=O)CN(C)C", "note": "[Example 30, Methyl 2-(4-((N-(3-(4-amino-2-(2-methoxyethyl)-1H-imidazo[4,5-c]quinolin-1-yl)propyl)-2-(dimethylamino)acetamido)methyl)phenyl)acetate]", "values": [{"measurement": "pEC50", "value": 6.70}]}
{"molecule": "COCCc1nc2c(N)nc3ccccc3c2n1CCCN(Cc1cccc(CC(=O)OC)c1)C(=O)CN1CCCCC1", "note": "[Example 31, Methyl 2-(3-((N-(3-(4-amino-2-(2-methoxyethyl)-1H-imidazo[4,5-c]quinolin-1-yl)propyl)-2-(piperidin-1-yl)acetamido)methyl)phenyl)acetate saccharin salt]", "values": [{"measurement": "pEC50", "value": 6.80}]}
{"molecule": "COCCc1nc2c(N)nc3ccccc3c2n1CCCN(Cc1ccc(CC(=O)OC)cc1)C(=O)CN(C)CCOC", "note": "[Example 32, Methyl 2-(4-((N-(3-(4-amino-2-(2-methoxyethyl)-1H-imidazo[4,5-c]quinolin-1-yl)propyl)-2-((2-methoxyethyl)(methyl)amino)acetamido)methyl)phenyl)acetate]", "values": [{"measurement": "pEC50", "value": 6.80}]}
{"molecule": "COCCc1nc2c(N)nc3ccccc3c2n1CCCN(Cc1ccc(CC(=O)OC)cc1)C(=O)CCN1CCCCC1", "note": "[Example 33, Methyl 2-(4-((N-(3-(4-amino-2-(2-methoxyethyl)-1H-imidazo[4,5-c]quinolin-1-yl)propyl)-3-(piperidin-1-yl)propanamido)methyl)phenyl)acetate]", "values": [{"measurement": "pEC50", "value": 6.80}]}
{"molecule": "COCCc1nc2c(N)nc3ccccc3c2n1CCCN(CCCN1CCOCC1)Cc1ccc(CC(=O)OC)cc1", "note": "[Example 34, Methyl 2-(4-(((3-(4-amino-2-(2-methoxyethyl)-1H-imidazo[4,5-c]quinolin-1-yl)propyl)(3-morpholinopropyl)amino)methyl)phenyl)acetate]", "values": [{"measurement": "pEC50", "value": 6.50}]}
{"molecule": "COCCc1nc2c(N)nc3ccccc3c2n1CCCN(Cc1ccc(CC(=O)OC)cc1)C(=O)CN1CCCC1", "note": "[Example 37, Methyl 2-(4-((N-(3-(4-amino-2-(2-methoxyethyl)-1H-imidazo[4,5-c]quinolin-1-yl)propyl)-2-(pyrrolidin-1-yl)acetamido)methyl)phenyl)acetate disaccharin salt]", "values": [{"measurement": "pEC50", "value": 6.40}]}
